Reference: paper PMC4979516, “Quinazoline-based tricyclic compounds that regulate programmed cell death, induce neuronal differentiation, and are curative in animal models for excitotoxicity and hereditary brain disease” (Cell Death Discovery, 2015)

Experiments:
U118MG cells [1] = experiment: Mitochondrial membrane potential (JC-1) assay in U118MG cells exposed to glutamate; assay type: cell-based, human; conditions: 25 μM compound, 35 mM glutamate
Excerpt: JC-1 was used to assay changes in Δψm, as described previously.[71],[79] Owing to charges distributed along JC-1 molecules, they pass unimpaired (charged) mitochondrial membranes and enter the mitochondrial matrix. There the J-molecules form J-aggregates, which emit at 590 nm (orange–red fluorescence). […] The monomers emit at 527 nm (green fluorescence). A decrease in the red–green fluorescence intensity ratio is an indication for mitochondrial depolarization. As a positive control, the proton ionophore carbonyl cyanide m-chlorophenylhydrazone was used as described previously.[71] Cells were collected and prepared for suspension in 10 μg/ml of JC-1 solution in PBS. After incubation at 37 °C for 30 min in the dark, the cells were washed with 0.5 ml of PBS, and the cell suspensions were analyzed with the BD FACSCalibur flow cytometer.

U118MG cells [2] = experiment: Mitochondrial ROS / cardiolipin oxidation (NAO) assay in U118MG cells exposed to glutamate; assay type: cell-based, human; conditions: 25 μM compound, 35 mM glutamate
Excerpt: Cardiolipin is present in the inner mitochondrial membrane, at the contact sites with the outer mitochondrial membrane. By application of NAO, we assayed cardiolipin peroxidation as an indication of mitochondrial ROS generation, as described previously.[71] NAO binds with high affinity to non-oxidized cardiolipin in a 2 : 1 ratio, but with less affinity to oxidized cardiolipin, the latter which is reflected by lower levels of green NAO fluorescence.[78] For our study, cells were collected and centrifuged at 1200×g for 5 min, 4 °C. Cell pellets were re-suspended in 0.5 ml of 0.1 μM NAO and incubated for 30 min at 37 °C in the dark. Then, the cells were washed once with 0.5 ml PBS and transferred into 5 ml FALCON FACS tubes and analyzed with the aid of a BD FACSCalibur flow cytometer using CellQuest software (BD Biosciences, Franklin Lakes, NJ, USA).

[3] = system: PC12 cells strain #1 (polygonal cells); experiment: Neuronal differentiation (neurite sprouting) of PC12 strain #1; assay type: cell-based, rat; conditions: strain #1, only polygonal cells
[4] = system: NeuN expression in PC12 cells strain #3; experiment: Western blot of NeuN in PC12 strain #3; assay type: cell-based, rat; conditions: PC12 strain #3, versus vehicle control
Method: The relative protein levels of TSPO and other proteins related to neurodifferentiation (including β-actin, NeuN, tubulin-3β), were assayed by immunoblotting with the aid electrophoresis through 12% SDS-polyacrylamide gel, according to previously described methods.[71] A priori, general protein levels were measured by the method of Bradford using BSA as a standard.[75] After electrophoresis, the gels were subjected to electrophoretic transfer to nitrocellulose membranes. Then, the membranes were blocked for 1 h in 5% non-fat milk in 62.5 mM sodium phosphate buffer, pH 7.4, containing 100 mM NaCl, and 0.1% (v/v) Tween-20 (PBS-T) and then incubated for 2 h or overnight at 4 °C with the appropriate antibodies: anti-tubulin-3β 1 : 10 000, anti-NeuN 1 : 1000, anti β-actin 1 : 15 000, and anti-TSPO 1 : 10 000.[73] After washing with TBS-T, the membranes were incubated with IgG secondary antibody linked to horseradish peroxidase (anti-rabbit IgG 1 : 20 000, anti-mouse IgG 1 : 10 000, as appropriate, from Jackson Immunologicals, West Grove, PA, USA) in TBS-T at room temperature. Binding of antibodies to the membrane was detected with the EZ-ECL-detection reagent (Biological Industries), using the ImageQuant LAS 4010 apparatus and Totallab Quant quantitative image analysis of Totallab (Newcastle upon Tyne, England).

[5] = system: kainic acid-injected Sprague-Dawley rats; experiment: Systemic kainic acid injection model in rats (seizures, hyper reactivity, hippocampal histology); assay type: in vivo; conditions: rat
Excerpt: Epileptic seizures in rats, including gnawing, wet dog shakes, head bobbing, forepaw abduction, rearing, forelimb clonus, loss of balance, and convulsions were induced by systemic injections of kainic acid and scored as previously described.[48],[83–85] Such induced seizures typically are accompanied by neurodegeneration in the hippocampus, amydala, pyriform cortex, followed by edema in the diencephalon, and mesencephalon.[43],[44],[86] To test the effects of pretreatment with MGV-1 on the consequences of kainic acid injections, first of all MGV-1 was dissolved in vehicle (10% (v/v) dimethylsulfoxide (DMSO) in sesame oil). After that, 8 weeks old rats received an intraperitoneal injection of 15, 7.5, or 3.75 mg of MGV-1 (per kg/rat), according to previous methods.[48] […] After the kainic acid injections, the rats were monitored continuously for 2 h for the development of epileptic symptoms.[48],[86]
For MGV-1 post-treatment, rats first received a KA injection (9 mg/kg/rat) and then a single injection of 15 mg/kg MGV-1 2 h later, that is, after the typical period for full blown seizure activity. In a single experiment, each experimental group and the vehicle control group consisted of nine rats. Then, for 1 week, daily injections of MGV-1 were given, and the rats were tested daily for hyper reactivity in response to handling.[47] Histological assays were applied 2 weeks after kainic acid injections.
For histological assays, rats that had developed seizures and had subsequently received treatment or control vehicle were sedated with ketamine (75 mg/kg) and xylazine (10 mg/kg) injections until no reflexes were seen and were then perfused with 4% of paraformaldehyde. […] The brains were taken and then stored in paraformaldehyde 4% solution at 4 °C. After 48 h, the solution was changed to 20% sucrose solution at 4 °C. Brains of rats that were post treated with MGV-1 were prepared in the same way. After the brains had sunk they were embedded in optimal cutting temperature compound, frozen with liquid nitrogen, and stored at −70 °C. The brains were cut at −18 °C on a Cryostat Leica (Wetzlar, Germany) CM3050S microtome in 40 μm sections from Bregma −2.8 to −5.8. The sections were kept in PBS without Ca^2+ and Mg^2+ with 0.5% sodium azide at 4 °C. Sections were incubated with primary antibodies against anti-NeuN to label neurons.[87] The appropriate secondary antibodies were applied with VECTASTAIN Peroxidase ABC Kits (Vector Laboratories, Burlingame, CA, USA) based on avidin–biotin, according to the manufacturer’s instructions. The labeled, floating sections were mounted on microscope slides and coverslipped applying glycerol vinyl alcohol aqueous mounting solution. For observations and micrographs, a BH2 Olympus (Tokyo, Japan) upright microscope outfitted with a Nikon (Tokyo, Japan) DSFi1 digital camera was used.

## CN(C)C(=O)Oc1nc(-c2ccccc2)nc2ccccc12 [MGV-1, 2-phenylquinazolin-4-yl dimethylcarbamate]
U118MG cells [1]
  Prevention of collapse of the ΔΨm induced by glutamate (JC-1): prevention of the collapse of the ΔΨm
U118MG cells [2]
  Prevention of cardiolipin oxidation / mitochondrial ROS generation induced by glutamate (NAO): prevent cardiolipin oxidation
[3]
  Differentiation of PC12 strain #1 by the agent by itself: can be differentiated by MGV-1 by itself
[4]
  Increase of NeuN expression (western blot): do not enhance NeuN expression significantly
[5]; 15 and 7.5 mg/kg MGV-1 i.p. 2 h before kainic acid 9 mg/kg
  Induction of seizures by kainic acid: reduction of seizure incidence by half
[5]; MGV-1 15 mg/kg 2 h after kainic acid, then daily for 6 days
  Hyper reactivity in response to handling, post-treatment: restores normal response to handling
[5]; MGV-1 15 mg/kg 2 h after kainic acid, then daily for a week
  Damage in hippocampal area CA1 (NeuN labeling), post-treatment: attenuated damage to area CA1, but less so than MGV-1 pretreatment
[5]; MGV-1 2 h before kainic acid, week after injection
  Hyper reactivity in response to handling, pretreatment: attenuates the incidence of the hyper reactivity
[5]; MGV-1 i.p. before kainic acid 9 mg/kg, histology 2 weeks later
  Damage in hippocampal area CA1 (NeuN labeling), pretreatment: well attenuated
